Measured values from ChEMBL document CHEMBL4425083, “Quadruplex Nucleic Acids as Novel Therapeutic Targets” (J Med Chem, 2016).

Tested on: Quadruplex DNA
Test: Binding affinity to c-myc G-quadruplex DNA (unknown origin) assessed as increase in melting temperature at 50 uM by CD-spectrometric analysis
Type: nucleic-acid assay

ΔTm: 2.1 °C
Compound: Cc1ccc(NC(=O)c2c(C)oc3ccc(O)c(CN4CCCCCC4)c23)cc1
